Measured values published in PMC6874530, “Structural analysis identifies an escape route from the adverse lipogenic effects of liver X receptor ligands” (Communications Biology, 2019).
Like-named read-outs stand apart in the source and are kept apart here.

Key:
[1] = biological target: T1, LXRβ (Homo sapiens, UniProt P55055); assay: Gal4 one hybrid reporter gene (transactivation) assay in U2OS cells, LXRβ; format: cell-based; conditions: for Emax: U2OS, 40 h, read-out: LXRβ transactivation Agonist efficacy, %; for Potency-based LXRβ selectivity over LXRα: Gal4 reporter gene assays
T1 construct: expression vectors pSG5-Gal4-LXRα LBD or pSG5-Gal4-LXRβ LBD; expressed in transfected cells; host or cells: U2OS osteosarcoma cells
T1 sequence (P55055 222-460 limits assumed): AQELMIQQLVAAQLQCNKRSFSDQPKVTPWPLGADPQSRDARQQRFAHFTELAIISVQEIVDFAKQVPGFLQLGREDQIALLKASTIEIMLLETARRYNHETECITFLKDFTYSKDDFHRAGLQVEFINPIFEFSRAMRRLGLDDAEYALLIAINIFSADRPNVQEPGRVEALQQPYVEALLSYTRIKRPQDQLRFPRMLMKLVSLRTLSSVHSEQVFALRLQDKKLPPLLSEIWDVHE
Procedure: Transactivation assays were performed in U2OS osteosarcoma cells (ATCC, USA). […] Ligands were added at ten different concentrations 2 h post transfection and the luciferase activity was measured after 40 h.

[2] = biological target: T2, LXRα LBD (Homo sapiens, UniProt Q13133); assay: differential HDX-MS of LXRα LBD (apo vs ligand-bound); design: Human his-tagged LXRα LBD (200-447); His tag; made in house; host or cells: Escherichia coli BL21(DE3); conditions: for stabilization of LXRα H12: HDX-MS; for protection of LXRα H3 from deuterium exchange: after 600 s of deuterium exchange
T2 sequence (Q13133 200-447): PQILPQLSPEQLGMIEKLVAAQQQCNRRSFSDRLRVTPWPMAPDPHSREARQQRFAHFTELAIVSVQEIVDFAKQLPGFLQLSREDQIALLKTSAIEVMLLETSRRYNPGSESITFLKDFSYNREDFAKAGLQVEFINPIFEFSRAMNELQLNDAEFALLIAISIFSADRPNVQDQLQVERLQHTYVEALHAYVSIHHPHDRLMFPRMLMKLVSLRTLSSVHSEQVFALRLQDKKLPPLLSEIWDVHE
Procedure: (§1) Prior to the deuterium incorporation experiments, 10 µM apo LXR was incubated with 10× excess of ligand or equal volume of DMSO for 30 min at room temperature. In the experiments with cofactors, 15× excess of the SRC1 coactivator peptide and the NCOR1 corepressor peptide were added to the ligand-bound or apo proteins, respectively, and incubated for 30 min at room temperature. […] A fully deuterated sample was generated by incubating protein with 4 M guanidine-HCl in D2O for 30 min at 45 °C. Exchange reactions were performed with a CTC PAL sample handling robot (LEAP Technologies). Labeling times were 30, 60, 180, 600, and 1800 s in the kinetics experiments. Differential HDX of a complete compound selection was measured after 30 and 600 s of labeling time points. Reactions were conducted by incubating 4 µl of LXR with 50 µl of D2O buffer (containing 25 mM Tris-HCl (pD 7.6), 50 mM NaCl, 10% glycerol, and 1 mM TCEP). The exchange reaction was stopped by the addition of 50 µl of quench solution (3 M urea, 0.1% TFA) followed by immediate injection into a Enzymate BEH Pepsin 2.1 × 30 mm Column (Waters, UK) for protein digestion (2 min at 24 °C). Peptic digest was further injected on a Waters nanoACQUITY UPLC System where peptides were first desalted by trapping for 3 min on a VanGuard Pre-Column Acquity UPLC BEH C18 (1.7 μm; 2.1 × 5 mm), and then eluted over a 6-min 5–40% (vol/vol) acetonitrile (containing 0.1% formic acid) gradient into a Waters Synapt G2-Si mass spectrometer. Peptide separation was conducted at 0.1 °C. All exchange reactions were performed in triplicates.
(§2) Peptides from three samples of non-deuterated LXR were identified by using the ProteinLynx Global Server (PLGS Waters, UK). Peptides with an intensity of over 5000, a mass error < 5 ppm, and present in at least two of the three data acquisitions were pooled and imported into the DynamX data analysis software (Waters, UK). After a first round of automated spectral processing by using DynamX, each peptide was inspected manually for suitability for further analysis.
(§3) For pairwise comparison, MEMHDX software was used to identify statistically significant changes of deuterium uptake. For all peptides, a value of relative exchange per amino acid was corrected to back exchange. The mean deuteration level per amino acid was calculated by using Matlab (Mathworks)[69] and subsequently mapped onto the crystal structures with PyMOL (Schrodinger LLC). For structural representation, loop modeling with MOE (Chemical Computing Group Inc.) was applied on 2ACL.pdb file for LXRα LBD, and 1PQC.pdb for LXRβ LBD.

[3] = test system: LXR KO macrophages; assay: LXR target gene expression in LXR KO macrophages; format: cell-based; conditions: reply to reviewers
[4] = biological target: T2, LXRα LBD; assay: biochemical
From the text: The compounds were run in triplicate (binding assay) or in quadruplicate (transactivation assay). Standard deviations are indicated for individual experiments run more than once.

[5] = biological target: T3, LXRβ LBD (Homo sapiens, UniProt P55055); assay: differential HDX-MS of LXRβ LBD (apo vs ligand-bound); design: human his-tagged LXRβ LBD (216-461); His tag; made in house; host or cells: Escherichia coli BL21(DE3); conditions: after 30 s of deuterium exchange
T3 sequence (P55055 215-460 limits assumed): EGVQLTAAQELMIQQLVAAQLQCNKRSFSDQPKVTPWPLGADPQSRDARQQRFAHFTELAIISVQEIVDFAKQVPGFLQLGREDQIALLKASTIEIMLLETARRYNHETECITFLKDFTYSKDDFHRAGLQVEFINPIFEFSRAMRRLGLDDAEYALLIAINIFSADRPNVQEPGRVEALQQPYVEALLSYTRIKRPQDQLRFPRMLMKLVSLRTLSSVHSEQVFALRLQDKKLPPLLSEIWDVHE
Procedure: as §1, §2, §3

[6] = test system: plasma triglycerides; design: method as in van der Hoorn et al. 2011; conditions: AZ876 high dose 20 µmol·kg−1·day−1, GW3965 at a similar dose; ref van der Hoorn et al. 2011; cited from earlier work
[7] = U2OS cells, Gal4-LXRβ LBD, value (SD, n), read-out: LXRβ transactivation pEC50 (converted)
[8] = maximal activation compared with a reference full agonist, value (SD, n)
[9] = Receptor-binding affinity pKi LXRα, value (SD, n independent experiments)

SMILES	EC50 [1, 7] [µM]	protection of LXRα H3 from deuterium exchange [2]	Emax [1, 8] [%]	Ki [4, 9] [µM]	protection of LXRβ H11–H12 from deuterium exchange [5]	other results
CC(C)(O)c1cn(-c2ccc(-c3cc(F)c(CO)c(S(C)(=O)=O)c3)cc2F)c(C(C)(C)c2c(Cl)cccc2Cl)n1 [BMS-852927]	> 20	60%	–	–	–	agonist activity in the Gal4 reporter gene assay, LXRβ [1]: No signal was observed; stabilization of LXRα H12 [2]: did not stabilize LXRα H12; LXR target gene expression in LXR KO macrophages [3]: does not induce LXR
CC(C)(C)N1C(=O)C(NC2CCN(c3ncc(CC(=O)O)cc3Cl)CC2)=C(c2ccccc2)S1(=O)=O [AZ4]	0.148	–	110	0.355	–	–
CC(C)N1C(=O)C(NC2CCN(c3ncc(CC(=O)O)cc3Cl)CC2)=C(c2ccccc2)S1(=O)=O [AZ6]	0.617	–	95.3	1.58	17-25%	–
O=C(O)Cc1cccc(OCCCN(Cc2cccc(C(F)(F)F)c2Cl)CC(c2ccccc2)c2ccccc2)c1 [GW3965, reference compound]	0.347	–	–	0.158	–	Emax [1]: 77.1%; increase of plasma triglyceride levels [6]: 70%
CN(C)C(=O)c1cnc(N2CC[C@@H](CNC3=C(c4ccccc4)S(=O)(=O)N(C(C)(C)C)C3=O)C2)c(Cl)c1 [AZ5]	0.0977	no effect	66.5	2.14	–	Potency-based LXRβ selectivity over LXRα [1]: 11 fold; stabilization of LXRα H12 [2]: did not stabilize LXRα H12
O=S(=O)(c1ccccc1)N(CC(F)(F)F)c1ccc(C(O)(C(F)(F)F)C(F)(F)F)cc1 [T0901317, reference compound]	–	–	–	–	17-25%	LXRβ transactivation Agonist efficacy, % [1, 8]: 95.5 (6.4, n = 2) %
CC(C)N1C(=O)C(NCCCCc2cccc(S(N)(=O)=O)n2)=C(c2ccccc2)S1(=O)=O [AZ3]	0.0759	–	94.3	0.501	17-25%	Potency-based LXRβ selectivity over LXRα [1]: 9 fold; EC50 ([1]; read-out: potency in LXRβ-based assay): < 0.1 µM
CC(C)(C)N1C(=O)C(Cc2ccccc2)=C(NC2CCN(c3ncc(CC(=O)O)cc3Cl)CC2)C1=O [AZ7]	0.537	–	104	1.07	–	Ki ([4]; binding affinity to LXRα): 1 µM
Fc1ccc(-c2c3cccc(C(F)(F)F)c3nn2Cc2ccc(F)cc2Cl)cc1 [LXR-623, reference compound]	–	no effect	–	–	–	EC50 [1]: 1.86 µM; Emax [1]: 94.3%; Ki [4]: 0.49 µM
CN(C)C(=O)c1cccc(CCCCNC2=C(c3ccccc3)S(=O)(=O)N(C(C)(C)C)C2=O)c1 [AZ1]	0.0309	–	76	0.0912	–	–
O=C(O)Cc1ccc(CNC(=O)[C@@H]2Cc3ccccc3N2S(=O)(=O)c2ccc(-c3ccccc3C(F)(F)F)cc2)cc1 [F1, reference compound]	3.89	–	105	0.0102	–	stabilization of LXRα H12 [2]: did not stabilize LXRα H12; Ki ([4]; binding affinity to LXRα): 0.01 µM
CC(CCCc1cccc(S(N)(=O)=O)n1)NC1=C(c2ccccc2)S(=O)(=O)N(C(C)C)C1=O (stereo not shown) [AZ2]	0.00871	–	97.3	0.0912	–	Potency-based LXRβ selectivity over LXRα [1]: 11 fold
O=C1C(Cc2ccccc2)=C(NCCCCc2ccccc2)C(=O)N1Cc1ccccc1 [AZ8]	1.29	no effect	102	0.195	17-25%	–
